Data reported in ChEMBL document CHEMBL1857833, “Screening and optimization of specific chemical series against human African Trypanosomiasis (HAT)”.
Values after ≈ are worked out from the molar mass of the structure shown. Values joined by “and” are separate entries in the source; they are usually repeats but may differ in a detail not shown here. Equal entries are not always repeated.

Tests used:
[1] = DNDI: Cytotoxicity against L929 mouse fibroblasts, 72 hour.; format: toxicity, cell-based; conditions: mouse, L929 mouse fibroblasts
[2] = molecular target: T1, MDR1 (ABCB1) (Homo sapiens, UniProt P08183); assay: DNDI: % of compound recovered from apical to basolateral permeability assay in MDCK cells transfected with human MDR1 after 60 mins at a concentration of 3uM; format: ADME, cell-based, Canis lupus familiaris; conditions: dog
[3] = DNDI: Lipophilicity measured in Chromatographic hydrophobicity index (CHI) assay, pH 7.4; format: physicochemical; conditions: buffer
[4] = DNDI: Solubility in phosphate buffered saline at pH7.4 measured by nephelometry at room temperature (NEPH-RT); format: physicochemical; conditions: pH 7.4
[5] = DNDI: half-life in mouse S9 microsomes at a concentration of 1uM; format: ADME, subcellular, Liver, S9 fraction
[6] = molecular target: T1, MDR1 (ABCB1); assay: DNDI: % of compound recovered from apical to basolateral permeability assay in MDCK cells transfected with human MDR1 after 60 mins at a concentration of 3uM in the presence of GF120918; format: ADME, cell-based, Canis lupus familiaris; conditions: dog, MDCK-MDR1, with GF120918 (concentration not stated)
[7] = test system: Trypanosoma brucei; assay: DNDI: Inhibition of Human African Trypanosomiasis, SBRI 427, in vitro; format: functional, organism-based
[8] = molecular target: T1, MDR1 (ABCB1); assay: DNDI: Apparent permeability from apical to basolateral side of the MDCK cell transfected with human MDR1after 60 mins at a concentration of 3uM; format: ADME, cell-based, Canis lupus familiaris; conditions: dog, MDCK-MDR1
[9] = mouse, microsomes, 1 µM
Description: (§2) DNDI: in vitro intrinsic clearance in mouse liver microsomes at a concentration of 1uM

[10] = in vitro; conditions: human, liver microsomes, t (1 / 2)
Description: DNDI: half life in human liver microsomes at a concentration of 1uM

[11] = DNDI: Cytotoxicity against L929 mouse fibroblasts, CYTO-SP, 24 hour; format: toxicity, cell-based; conditions: mouse, L929 mouse fibroblasts
[12] = mouse, microsomes, 1 µM; remark: listed apart in the source
Description: (§3) DNDI: half life in mouse liver microsomes at a concentration of 1uM

[13] = in vitro; conditions: human, liver microsomes, CLint in vitro
Description: DNDI: in vitro intrinsic clearance in human liver microsomes at a concentration of 1uM

[14] = test system: Trypanosoma brucei; assay: DNDI: Inhibition of Human African Trypanosomiasis, Cross 22, in vitro; format: functional, organism-based
[15] = DNDI: in vitro intrinsic clearance in human liver microsomes at a concentration of 10uM; format: ADME, Microsome
[16] = test system: Leishmania donovani; assay: DNDI: Inhibition of formation of Leishmania donovani (strain MHOM/ET/67/L82) axenic amastigotes, in vitro.; format: functional, organism-based
[17] = in vitro; conditions: mouse, t (1 / 2)
Description: as §3

[18] = test system: Plasmodium falciparum; assay: DNDI: Inhibition of the malaria parasite Plasmodium falciparum, in vitro; format: functional, organism-based; conditions: K1
[19] = test system: Trypanosoma brucei rhodesiense; assay: DNDI: Inhibition of Human African Trypanosomiasis (HAT), STIB 900, in vitro; format: functional, organism-based
[20] = DNDI: in vitro intrinsic clearance in mouse liver microsomes at a concentration of 10uM; format: ADME, Microsome; conditions: read-out: CLint in vitro
[21] = in vitro; conditions: mouse
Description: as §2

[22] = DNDI: Solubility in phosphate buffered saline at pH7.4 measured by optical density (turbidimetry) at room temperature (OD-RT); format: physicochemical; conditions: pH 7.4
[23] = DNDI: half life in human liver microsomes at a concentration of 10uM; format: ADME, Microsome
[24] = DNDI: Cytotoxicity against L-6 rat myoblasts from skeletal muscle cells; format: toxicity, cell-based, L6; conditions: L-6 rat skeletal muscle myoblasts
[25] = test system: Trypanosoma cruzi; assay: DNDI: Inhibition of Chagas Disease parasite Trypanosoma cruzi (Tulahuen LacZ, Clone C4), in vitro.; format: functional, organism-based
[26] = DNDI: half life in mouse liver microsomes at a concentration of 10uM; format: ADME, Microsome
[27] = test system: Trypanosoma brucei; assay: (§1) DNDI: Mean survival time in days (MSD) of mice after intraperitoneal injection of Human African Trypanosomiasis (HAT), EATRO 110, in vivo at 20 mg/kg/day for 4 days.; format: functional, Mus musculus
[28] = DNDI: % of compound remaining in mouse S9 microsomes at a concentration of 1uM after 60 mins; format: ADME, subcellular, Liver, S9 fraction
[29] = test system: Trypanosoma brucei; assay: as §1; format: functional, Mus musculus; remark: listed apart in the source
[30] = DNDI: % of compound remaining in rat S9 microsomes at a concentration of 1uM; format: ADME, subcellular, Liver, S9 fraction
[31] = test system: Trypanosoma brucei; assay: DNDI: Inhibition of Human African Trypanosomiasis, EATRO 110, in vitro; format: functional, organism-based
[32] = molecular target: T1, MDR1 (ABCB1); assay: DNDI: Efflux ratio for permeability from basolateral to apical side to apical to basolateral side of MDCK cells transfected with human MDR1; format: ADME, cell-based, Canis lupus familiaris; conditions: dog, MDCK-MDR1; read-out: Calculated Ratio
[33] = Trypanosoma brucei, SBRI 427, read-out: IC50

T1 sequence (P08183 whole entry): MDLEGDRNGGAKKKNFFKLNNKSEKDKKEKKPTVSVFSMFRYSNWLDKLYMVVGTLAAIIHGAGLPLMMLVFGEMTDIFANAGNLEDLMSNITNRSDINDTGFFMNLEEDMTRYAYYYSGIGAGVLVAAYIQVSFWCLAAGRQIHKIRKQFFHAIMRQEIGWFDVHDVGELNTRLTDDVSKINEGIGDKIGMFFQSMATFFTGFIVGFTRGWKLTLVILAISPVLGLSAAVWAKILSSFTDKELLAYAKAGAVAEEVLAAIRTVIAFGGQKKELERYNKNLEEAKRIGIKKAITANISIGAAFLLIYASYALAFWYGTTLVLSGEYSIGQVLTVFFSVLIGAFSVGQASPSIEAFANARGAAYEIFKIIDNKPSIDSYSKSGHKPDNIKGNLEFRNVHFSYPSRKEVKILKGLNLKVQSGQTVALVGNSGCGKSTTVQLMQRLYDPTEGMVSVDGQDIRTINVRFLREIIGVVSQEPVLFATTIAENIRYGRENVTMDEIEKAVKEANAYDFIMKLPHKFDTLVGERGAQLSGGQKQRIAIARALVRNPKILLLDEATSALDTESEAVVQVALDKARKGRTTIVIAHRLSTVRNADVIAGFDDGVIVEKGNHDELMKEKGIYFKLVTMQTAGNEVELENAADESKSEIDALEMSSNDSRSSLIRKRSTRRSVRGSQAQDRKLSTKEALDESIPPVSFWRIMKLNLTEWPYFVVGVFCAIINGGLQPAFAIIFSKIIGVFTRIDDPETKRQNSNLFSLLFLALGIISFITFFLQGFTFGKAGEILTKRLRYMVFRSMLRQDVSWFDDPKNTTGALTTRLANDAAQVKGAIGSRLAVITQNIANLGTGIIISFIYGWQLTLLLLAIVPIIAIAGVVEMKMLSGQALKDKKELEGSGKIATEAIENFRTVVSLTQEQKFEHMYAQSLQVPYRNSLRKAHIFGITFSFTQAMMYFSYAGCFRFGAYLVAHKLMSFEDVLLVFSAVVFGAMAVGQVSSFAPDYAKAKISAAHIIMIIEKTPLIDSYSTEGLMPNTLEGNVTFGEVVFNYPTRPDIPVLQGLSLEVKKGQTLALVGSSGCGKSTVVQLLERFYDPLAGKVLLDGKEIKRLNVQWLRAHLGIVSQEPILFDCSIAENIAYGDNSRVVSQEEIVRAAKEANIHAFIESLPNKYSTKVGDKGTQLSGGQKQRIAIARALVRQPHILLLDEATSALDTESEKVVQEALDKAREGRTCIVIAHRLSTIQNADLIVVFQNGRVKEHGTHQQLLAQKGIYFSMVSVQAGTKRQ

Row | Compound | chromatographic logD [3] | solubility kinetic [4] [µM] | IC50 [7, 33] [µg/mL] | t (1 / 2) [12] | IC50 [7] | IC50 [14] [µg/mL] | IC50 at 72 h [1] [µg/mL] | CLint in vitro [9] | IC50 at 24 h [11] [µg/mL] | CLint in vitro [15] [µL/min/mg] | IC50 [16] [µg/mL] | half-life at 1 µM ([17]; liver microsomes) [min] | IC50 [18] [µg/mL] | IC50 [19] [µg/mL] | microsomal CLint at 10 µM [20] [µL/min/mg] | solubility kinetic [22] [µM] | half-life at 10 µM [23] [min] | IC50 [24] [µg/mL] | IC50 [25] [µg/mL] | half-life at 10 µM [26] [min] | other results
1 | COc1ccc(/C(=N/O)Nc2cccc(C(F)(F)F)c2)cc1 | 3.67 | 25 (≈ 7.76 µg/mL) | – | – | – | – | 8.11 (≈ 26.1 µM) | 319 µL/min/mg | – | – | – | 3 | – | – | – | – | – | – | – | – | MSD [27]: 5 days; remaining at 1 h, 1 µM [28]: 0%; MSD [29]: 5 days; remaining at 1 µM [30]: 0%
2 | COc1ccccc1CNC(CCc1ccccc1)c1nc(Cc2ccccc2)c(N2CCCCC2)o1 (stereo not given) | – | 2 (≈ 0.991 µg/mL) | 4.41 (≈ 8.9 µM) | – | – | – | 8.24 (≈ 16.6 µM) | 487 µL/min/mg | – | – | – | 2 | – | – | – | – | – | – | – | – | microsomal CLint at 1 µM ([21]; liver microsomes): 471 µL/min/mg
3 | CCCCCC(C)NCc1coc(-c2ccc(CCCC)cc2)n1 (stereo not given) | 5.51 | – | – | 81 min | – | 0.3 (≈ 0.913 µM) | 1.48 (≈ 4.51 µM) | 11 µL/min/mg | > 50 | 30 | 5.25 (≈ 16 µM) | – | 0.647 (≈ 1.97 µM) | 0.186 (≈ 0.566 µM) | 16 | 1.6 (≈ 0.526 µg/mL) | 97 | 2.31 (≈ 7.03 µM) | 2.8 (≈ 8.52 µM) | 179 | half-life at 1 µM ([17]; microsomes): 73 min; MSD [29]: 3.4 days; microsomal CLint at 1 µM ([21]; microsomes): 12 µL/min/mg
4 | COc1cc(C)ccc1Oc1ncccc1/C(=N/O)NC1CCCCC1 | 4 | 25 (≈ 8.89 µg/mL) | 0.25 (≈ 0.703 µM) | – | 0.15 µg/mL (≈ 0.422 µM) | – | > 10 | 76 µL/min/mg | > 50 | 19 | > 90 | 11 | > 5 | 57.9 (≈ 163 µM) | 76 | 25 (≈ 8.89 µg/mL) | 154 | 76.2 (≈ 214 µM) | > 30 | 38 | logD [3]: 4.04; remaining at 1 h, 1 µM [28]: 18.3%; MSD [29]: 5.5 days; IC50 [31]: 0.48 µg/mL (≈ 1.35 µM); remaining at 1 µM [30]: 0.111%

The next lines start with results.

Row | chromatographic logD [3] | solubility kinetic [4] [µM] | IC50 [7, 33] [µg/mL] | t (1 / 2) [12] | IC50 [7] | IC50 [14] [µg/mL] | Compound | IC50 at 72 h [1] [µg/mL] | CLint in vitro [9] | IC50 at 24 h [11] [µg/mL] | CLint in vitro [15] [µL/min/mg] | IC50 [16] [µg/mL] | half-life at 1 µM ([17]; liver microsomes) [min] | IC50 [18] [µg/mL] | IC50 [19] [µg/mL] | microsomal CLint at 10 µM [20] [µL/min/mg] | solubility kinetic [22] [µM] | half-life at 10 µM [23] [min] | IC50 [24] [µg/mL] | IC50 [25] [µg/mL] | half-life at 10 µM [26] [min] | other results
5 | 5.2 | 25 (≈ 9.39 µg/mL) | 1.53 (≈ 4.08 µM) | – | – | – | CN(C)CCNc1cc(-c2ccccc2)nc2cc(-c3ccc(F)cc3)nn12 | > 10 | – | – | – | – | – | – | – | – | – | – | – | – | – | recovery at 1 h, 3 µM [2]: 100%; half-life at 1 µM [5]: > 350 min; recovery at 1 h, 3 µM [6]: 70%; Papp A→B at 1 h, 3 µM [8]: 8.84 ×10⁻⁶ cm/s
6 | 5.34 | < 1 | 0.38 (≈ 1.11 µM) | 26 min and 78 min | 0.3 µg/mL and 0.39 µg/mL | 0.4 (≈ 1.17 µM) | CCCCOc1ccc(-c2nc(CNC3CCCCCC3)co2)cc1 | < 3.13 | 32 µL/min/mg and 11 µL/min/mg | 11.7 (≈ 34.2 µM) | – | – | – | – | – | – | – | – | – | – | – | half-life at 1 µM [10]: 23 min; microsomal CLint at 1 µM [13]: 38 µL/min/mg
7 | 5.01 | – | 0.38 (≈ 1.1 µM) | 84 min | 0.29 µg/mL and 0.22 µg/mL | 0.36 (≈ 1.04 µM) | CCCCCC(C)NCc1coc(-c2ccc(OCCCC)cc2)n1 (stereo not given) | 1.54 (≈ 4.47 µM) | 10 µL/min/mg | > 50 | 28 | 4.92 (≈ 14.3 µM) | 70 | 0.825 (≈ 2.39 µM) | 0.278 (≈ 0.807 µM) | 15 | 1.6 (≈ 0.551 µg/mL) | 104 | 2.66 (≈ 7.72 µM) | 1.5 (≈ 4.35 µM) | 187 | microsomal CLint at 1 µM ([21]; liver microsomes): 12 µL/min/mg
8 | 4.09 | 100 (≈ 31.3 µg/mL) | > 5 | – | – | – | Cc1cc(NCCN(C)C)n2nc(-c3cccc(F)c3)cc2n1 | > 10 | – | – | – | – | – | – | – | – | – | – | – | – | – | recovery at 1 h, 3 µM [2]: 97%; efflux ratio [32]: 0.14; half-life at 1 µM [5]: 19 min; recovery at 1 h, 3 µM [6]: 108%; Papp A→B at 1 h, 3 µM [8]: 46.6 ×10⁻⁶ cm/s
